{"source": "patent US20160340647A1", "about": "“COMPOSITIONS AND METHODS FOR INDUCING DIFFERENTIATION OF STEM CELLS” (BIODEMAK LLC, priority 2014, published 2016)", "key": {"[1]": {"tested_on": "GSCs obtained from the U87 cell line", "test": "Cell differentiation of GSCs (phase contrast morphology, western blot)", "format": "cell-based", "settings": "for cell differentiation of GSCs (FIG. 6): treatment 2, two days", "experimental": "(§1) Sulindac was obtained from Sigma.\n(§2) Imaging and Immunocytochemistry: • Phase contrast pictures were obtained using an AmScope camera attached to a Nikon TMS microscope. Indirect immunocytochemistry (ICC) was performed as described previously. Briefly, cells were mechanically disaggregated and plated on poly-L-Lysine (PLL). For ICC the following markers were used: Ki67 for proliferative cells; nestin for NSC; beta-tubulin III for neurons; GFAP for astrocytes and 01 for oligodendrocytes. Epifluorescence microscopes (Leica and Nikon) were used for pictures, counting and visualization of the immunocytochemistry. The total number of neurons was quantified by counting a minimum of 15 fields per treatment in triplicates or quadruplicates and normalized vs. non-treated cultures."}, "[2]": {"tested_on": "GSCs obtained from the U87 cell line", "test": "Cell viability of GSCs after oxidizing agents (CellTiter 96 Aqueous One)", "settings": "for GSC killing in combination with oxidizing agents (FIG. 7): treatment 2, 250 uM epimer, 200 uM TBHP"}, "[3]": {"tested_on": "RTP801 levels in U87 cells", "test": "RTP801 levels in U87 cells", "settings": "U87 cells treated 72 hours at the same day of plating"}, "NSCs [4]": {"tested_on": "NSCs", "test": "Cell viability of NSCs after TBHP (CellTiter 96 Aqueous One)", "format": "cell-based, mice", "settings": "TBHP two hours", "experimental": "(§3) NSCs were obtained from the hippocampi of PO BL6 mice and cultured in DMEM/F12 medium (Gibco) containing B27 (Gibco), epidermal growth factor (EGF, 20 ng/ml. Invitrogen) and basic fibroblast growth factor (bFGF 10 ng/ml. Peprotech). To induce cell differentiation, NSC where plated on poli-L-lysine (Sigma) were NSC spontaneously differentiate into neurons, astrocytes and oligodendrocytes as previously described (Lopez-Toledano M A & Shelanski M L (2004) J. Neurosci. 24(23):5439-5444).\nas §1\n(§4) Background absorbance was subtracted from each sample."}, "NSCs [5]": {"tested_on": "NSCs", "test": "Neuronal differentiation of NSCs (beta-tubulin III immunocytochemistry, number of neurons vs control)", "format": "cell-based, mice", "settings": "treatment 1: floating NSCs 24 hours with 500 microMolar sulindac, plated on PLL another 24 hours", "experimental": "as §3, §1, §2"}, "RTP801 levels in GSCs": {"tested_on": "RTP801 levels in GSCs", "test": "RTP801 levels in GSCs"}, "astrocytes": {"tested_on": "astrocytes", "test": "Cell viability of astrocytes after TBHP (CellTiter 96 Aqueous One)", "format": "cell-based, mice", "settings": "astrocytes plated seven days, 48 hours 500 μM sulindac", "excerpt": "To obtain a pure culture of astrocytes, NSCs were differentiated in DMEM+10% FBS (both of Gibco) for seven days, trypsinized and re-plated in a new flask with the same medium. Under these circumstances, close to 100% of the cells become astrocytes (GFAP^+ cells).\nas §1, §4"}, "[6]": {"settings": "3 mM As2O3, 30 mM DCA or 400 nM DOX"}}}
{"smiles": "CC(C)Cc1ccc(C(C)C(=O)O)cc1", "note": "(centres unmarked) [ibuprofen]", "values": [{"measurement": "cell differentiation of GSCs (FIG. 6)", "setting": "[1]; 400 uM", "value": "no significant differentiation"}]}
{"smiles": "CC1=C(CC(=O)O)c2cc(F)ccc2/C1=C\\c1ccc([S@@+](C)[O-])cc1", "note": "[sulindac R epimer]", "values": [{"measurement": "GSC killing in combination with oxidizing agents (FIG. 7)", "setting": "[2]; [6]", "value": "enhanced killing"}]}
{"smiles": "CC1=C(CC(=O)O)c2cc(F)ccc2/C1=C\\c1ccc([S@+](C)[O-])cc1", "note": "[sulindac S-epimer]", "values": [{"measurement": "GSC killing in combination with oxidizing agents (FIG. 7)", "setting": "[2]; [6]", "value": "enhanced killing"}]}
{"smiles": "CC1=C(CC(=O)O)c2cc(F)ccc2/C1=C\\c1ccc(S(C)(=O)=O)cc1", "note": "[sulindac sulfone]", "values": [{"measurement": "cell differentiation of GSCs (FIG. 6)", "setting": "[1]; 25 uM", "value": "lower activity"}]}
{"smiles": "CC1=C(CC(=O)O)c2cc(F)ccc2/C1=C\\c1ccc([S+](C)[O-])cc1", "note": "(centres unmarked) [sulindac]", "values": [{"measurement": "neuronal differentiation of GSC by Western blot (nestin, DCX, actin)", "setting": "[1]; 500 microMolar sulindac", "value": "higher neuronal differentiation"}, {"measurement": "cell differentiation of GSCs (morphology) vs vehicle", "setting": "[1]; treatment 1: floating GSCs 24 hours with 500 microMolar sulindac, plated on PLL another 24 hours", "value": "clear differentiation effect"}, {"measurement": "cell differentiation of GSCs (FIG. 6)", "setting": "[1]; 500 uM", "value": "lower activity"}, {"measurement": "change of RTP801 levels", "setting": "[3]", "value": "reduction in RTP801 levels"}, {"measurement": "GSC sensitivity to different oxidative agents (FIG. 7)", "setting": "[2]; 48 hours, 500 uM sulindac, TBHP, 3 mM As2O3, 30 mM DCA or 400 nM DOX", "value": "increase GSC sensitivity"}, {"measurement": "effect on TBHP-induced cell death of floating undifferentiated GSCs", "setting": "[2]; treatment 1, 500 μM sulindac 24 hours, TBHP two hours", "value": "no effect"}, {"measurement": "effect on TBHP-induced cell death of plated GSCs", "setting": "[2]; treatment 2, 500 μM sulindac, TBHP two hours", "value": "increased TBHP-induced cell death"}, {"measurement": "effect on TBHP-induced death of NSCs", "setting": "NSCs [4]; treatment 1, floating NSCs, 500 μM sulindac", "value": "protected floating NSCs from TBHP-induced death"}, {"measurement": "effect on TBHP-induced cell death of NSCs", "setting": "NSCs [4]; treatment 2, plated NSCs, 500 μM sulindac 48 hours", "value": "complete protection against TBHP-induced cell death"}, {"measurement": "number of neurons (beta-tubulin III+) vs vehicle", "setting": "NSCs [5]", "value": "significant increase in the number of neurons"}, {"measurement": "change of RTP801 levels", "setting": "RTP801 levels in GSCs; GSCs at 0+72 (both floating and plated), 0+3 and 0+6", "value": "increase"}, {"measurement": "change of RTP801 levels", "setting": "RTP801 levels in GSCs; GSCs, sulindac added at the 3rd dpp for 3 days", "value": "decrease in RTP801"}, {"measurement": "effect on TBHP-induced cell death of astrocytes", "setting": "astrocytes", "value": "very similar protection"}]}
